# Experiments:
# [1] = test system: hippocampal neurogenesis (Dentate Gyrus); experiment: in vivo neurogenesis assay (BrdU+ cells in dentate gyrus); set-up: species or system mice
# From the text: The screen was simple in concept. With help from chemists in the Department of Biochemistry at UTSWMC, we selected 1,000 druglike chemicals from the 250,000 compounds in our high throughput screening center. The compounds were selected to preserve representative chemical diversity of the entire library. They were further selected to enhance the representation of chiral molecules, and to avoid untoward chemical properties such as reactive moieties. The 1,000 molecules were randomly pooled into groups of ten, and each pool was administered directly into the left ventricle of two adult mice. Intracranial delivery was facilitated by stereotactic positioning of a canula fed directly by an Alzet mini-pump containing the mixture of ten chemicals. The drug mixture was administered over a week-long period at concentrations anticipated to deliver mid-nanomolar levels of the ten test compounds. Daily injections of the thymidine analog, bromodeoxyuridine (BrdU), were coadministered in order to monitor the formation of new hippocampal nerve cells. Following compound administration, animals were sacrificed such that brain tissue could be recovered, sectioned and stained with antibodies to BrdU. […]
# p70 (NAMPT) = target: T1, p70 (NAMPT) (Homo sapiens, UniProt P43490); experiment: binding competition for photo-crosslinking of P7C3-S326 to p70 in H2122 cells; settings: 0.3 μM P7C3-S326 plus 5 μM competitor, p70 band intensity, P7C3-S326 alone compared with plus competitor, vehicle 1.0
# T1 construct: endogenous in cells; host or cells: H2122 lung cancer cells
# Procedure: Cultured cells were co-exposed to P7C3-S326 (0.3 uM) and the individual P7C3 variants (5 uM), exposed to UV light, lysed, clicked to a fluorescent dye and run on SDS gels (FIG. 11).
# P7C3-S326 was diluted to 0.3 μM in culture medium to treat H2122 cells. After incubation at 37° C. for 2 hours, H2122 cells were irradiated for 15 minutes under 306 nm ultraviolet light in a Stratalinker 2400 (Stratagene). Cells were then harvested by dissolving in 1% SDS lysis buffer 50 mM HEPES, pH 8.0, 2 mM MgCl2, 10 mM KCl, 1% SDS, 50 units/ml of Benzonase (Sigma), supplemented with Sigmafast protease inhibitor (Sigma).
# The reaction was incubated at room temperature with constant agitation at 1,000 rpm on a thermomixer (Eppendorf) for 1 hour. Samples were then mixed with SDS sample loading buffer and loaded on an 8% SDS-PAGE gel, separated, and imaged using a Typhoon imager (filter settings: excitation 533 nm, emission 555 nm, and high sensitivity).
# H2122 cells were incubated with the P7C3-S326 (0.3 μM) in the absence or presence of P7C3 analogs for 2 hours following by UV crosslinking. […] The samples were run on SDS-PAGE gels scanned using a Typhoon Imager. The p70 band intensity was analyzed and quantified by Image J, and the relative intensity in each assay was normalized to that of the DMSO control.
# [2] = living mice, vehicle (DMSO) 7.3
# T1 sequence (P43490 whole entry): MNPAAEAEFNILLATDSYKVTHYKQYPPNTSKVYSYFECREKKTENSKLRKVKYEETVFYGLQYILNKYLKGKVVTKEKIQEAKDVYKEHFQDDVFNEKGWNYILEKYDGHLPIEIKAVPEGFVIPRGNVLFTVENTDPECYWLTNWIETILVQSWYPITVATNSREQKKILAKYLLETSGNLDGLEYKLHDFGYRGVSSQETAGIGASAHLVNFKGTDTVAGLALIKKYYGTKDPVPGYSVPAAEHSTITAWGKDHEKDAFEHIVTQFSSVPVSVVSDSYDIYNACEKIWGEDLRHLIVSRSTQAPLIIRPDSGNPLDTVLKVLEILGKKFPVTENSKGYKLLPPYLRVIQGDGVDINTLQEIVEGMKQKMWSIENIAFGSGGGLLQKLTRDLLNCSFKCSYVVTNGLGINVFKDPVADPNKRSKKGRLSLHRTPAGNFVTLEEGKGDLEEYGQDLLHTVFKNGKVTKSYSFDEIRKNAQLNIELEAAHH
Structure (SMILES),"Neurogenesis # BrdU+ Cells (X10E06)/mm3 Dentate Gyrus [1, 2]",Binding competition (p70 (NAMPT)),"Neurogenesis # BrdU+ Cells (X10E06)/mm3 Dentate Gyrus ([1]; mouse, in vivo)"
[N-]=[N+]=Nc1ccc(NCC(O)Cn2c3ccc(Br)cc3c3cc(Br)ccc32)cc1 (stereo not shown) [S48],14.5 (X10E06)/mm3,3.4,
O=S(=O)(C[C@@H](O)Cn1c2ccc(Br)cc2c2cc(Br)ccc21)c1ccccc1 [S50],16.2 (X10E06)/mm3,3.8,
O=S(=O)(C[C@H](O)Cn1c2ccc(Br)cc2c2cc(Br)ccc21)c1ccccc1 [S51],13.2 (X10E06)/mm3,2.4,
O=S(=O)(CC(O)Cn1c2ccc(Cl)cc2c2cc(Cl)ccc21)c1ccccc1 (stereo not shown) [S52],10.8 (X10E06)/mm3,4.3,
COc1cccc(NCC(C)(O)Cn2c3ccc(Br)cc3c3cc(Br)ccc32)c1 (stereo not shown) [S54],16.7 (X10E06)/mm3,3.8,
C=C/C=N\C=C\NCC(O)Cn1c2ccc(Br)cc2c2cc(Br)ccc21 (stereo not shown) [S58],7.2 (X10E06)/mm3,2.5,
COc1ccc(NCC(F)Cn2c3ccc(Br)cc3c3cc(Br)ccc32)cc1 (stereo not shown) [S60],12.6 (X10E06)/mm3,1.4,
OC(CNc1ccccc1)Cn1c2ccc(C3CC3)cc2c2cc(C3CC3)ccc21 (stereo not shown) [S62],11.8 (X10E06)/mm3,1.2,
OC(CNc1ccccc1)Cn1c2ccc(I)cc2c2cc(I)ccc21 (stereo not shown) [S63],8.3 (X10E06)/mm3,1.5,
COc1cccc(NCC(O)Cn2c3ccc(C#N)cc3c3cc(C#N)ccc32)c1 (stereo not shown) [S65],12.9 (X10E06)/mm3,3.3,
CN(C)C(=O)COc1ccc(NCC(F)Cn2c3ccc(Br)cc3c3cc(Br)ccc32)cc1 (stereo not shown) [S70],7.4 (X10E06)/mm3,2.5,
O=C(COc1ccc(NCC(F)Cn2c3ccc(Br)cc3c3cc(Br)ccc32)cc1)NCCO (stereo not shown) [S71],7.2 (X10E06)/mm3,3.1,
OC(CNc1ccccc1)CN(c1ccc(Br)cc1)c1ccc(Br)cc1 (stereo not shown) [S72],11.7 (X10E06)/mm3,1.4,
COc1cccc(NCC(O)CN2c3ccc(Br)cc3CCc3cc(Br)ccc32)c1 (stereo not shown) [S76],14.2 (X10E06)/mm3,1.1,
COc1cccc(SCC(O)Cn2c3ccc(Br)cc3c3cc(Br)ccc32)c1 (stereo not shown) [S77],12.0 (X10E06)/mm3,3.3,
COc1ccc(SCC(O)Cn2c3ccc(Br)cc3c3cc(Br)ccc32)cc1 (stereo not shown) [S78],14.1 (X10E06)/mm3,2.7,
COc1cccc(SCC(F)Cn2c3ccc(Br)cc3c3cc(Br)ccc32)c1 (stereo not shown) [S79],13.7 (X10E06)/mm3,1.0,
COc1ccc(SCC(F)Cn2c3ccc(Br)cc3c3cc(Br)ccc32)cc1 (stereo not shown) [S80],13.0 (X10E06)/mm3,0.9,
COc1cccc(S(=O)(=O)CC(O)Cn2c3ccc(Br)cc3c3cc(Br)ccc32)c1 (stereo not shown) [S82],11.8 (X10E06)/mm3,2.3,
COc1ccc(S(=O)(=O)CC(O)Cn2c3ccc(Br)cc3c3cc(Br)ccc32)cc1 (stereo not shown) [S84],12.8 (X10E06)/mm3,1.2,
"CN(C)CCC=C1c2ccccc2CCc2ccccc21.Cl [S86, Amitriptyline, reference compound]",9.7 (X10E06)/mm3,1.3,
"CNCCCN1c2ccccc2CCc2ccccc21.Cl [S87, Desipramine, reference compound]",14.7 (X10E06)/mm3,1.2,
"CNCCC=C1c2ccccc2CCc2ccccc21.Cl [S89, Nortriptyline, reference compound]",8.7 (X10E06)/mm3,1.3,
"CNCCCC1c2ccccc2C=Cc2ccccc21.Cl [S90, Protriptyline, reference compound]",11.1 (X10E06)/mm3,1.4,

Structure (SMILES),"Neurogenesis # BrdU+ Cells (X10E06)/mm3 Dentate Gyrus [1, 2]",Binding competition (p70 (NAMPT)),"Neurogenesis # BrdU+ Cells (X10E06)/mm3 Dentate Gyrus ([1]; mouse, in vivo)"
Oc1cccc(SCC(O)CC2c3ccc(Br)cc3-c3cc(Br)ccc32)c1 (stereo not shown) [S91],8.2 (X10E06)/mm3,3.4,
Oc1ccc(SCC(O)Cn2c3ccc(Br)cc3c3cc(Br)ccc32)cc1 (stereo not shown) [S92],8.4 (X10E06)/mm3,2.5,
O=S(=O)(CC(O)Cn1c2ccc(Br)cc2c2cc(Br)ccc21)c1cccc(O)c1 (stereo not shown) [S93],11.9 (X10E06)/mm3,1.4,
O=S(=O)(CC(O)Cn1c2ccc(Br)cc2c2cc(Br)ccc21)c1ccc(O)cc1 (stereo not shown) [S94],8.5 (X10E06)/mm3,3.8,
Nc1cccc(SCC(O)Cn2c3ccc(Br)cc3c3cc(Br)ccc32)c1 (stereo not shown) [S95],8.6 (X10E06)/mm3,4.6,
Nc1ccc(SCC(O)Cn2c3ccc(Br)cc3c3cc(Br)ccc32)cc1 (stereo not shown) [S96],8.7 (X10E06)/mm3,3.9,
NC(COc1ccccc1)Cn1c2ccc(Br)cc2c2cc(Br)ccc21 (stereo not shown) [S97],7.6 (X10E06)/mm3,2.0,
O=C(COc1cccc(SCC(O)Cn2c3ccc(Br)cc3c3cc(Br)ccc32)c1)NCc1ccccc1 (stereo not shown) [S98],6.9 (X10E06)/mm3,1.1,
O=C(COc1ccc(SCC(O)Cn2c3ccc(Br)cc3c3cc(Br)ccc32)cc1)NCc1ccccc1 (stereo not shown) [S99],7.6 (X10E06)/mm3,2.5,
OC(COc1ccccc1)Cn1c2c(c3cc(Br)ccc31)CNCC2 (stereo not shown) [S105],10.8 (X10E06)/mm3,1.2,
OC(COc1ccccc1)Cn1c2c(c3cc(Br)ccc31)CN(C1CC1)CC2 (stereo not shown) [S106],10.9 (X10E06)/mm3,1.4,
N#CN1CCc2c(c3cc(Br)ccc3n2CC(O)COc2ccccc2)C1 (stereo not shown) [S107],7.3 (X10E06)/mm3,3.5,
FC(COc1ccccc1)Cn1c2c(c3cc(Br)ccc31)CNCC2 (stereo not shown) [S108],7.6 (X10E06)/mm3,1.0,
OC(CNC1CCCCC1)Cn1c2ccc(Br)cc2c2cc(Br)ccc21 (stereo not shown) [S109],9.4 (X10E06)/mm3,1.2,
N#Cc1ccc2c(c1)c1cc(C#N)ccc1n2CC(O)CSc1ccccc1 (stereo not shown) [S110],10.5 (X10E06)/mm3,6.2,
N#Cc1ccc2c(c1)c1cc(C#N)ccc1n2CC(O)COc1ccccc1 (stereo not shown) [S111],12.3 (X10E06)/mm3,4.1,
"NNCCc1ccccc1 [S116, Nardi, reference compound]",11.0 (X10E06)/mm3,1.2,
"N[C@@H]1C[C@H]1c1ccccc1 [S118, Parnate, reference compound]",,1.3,8.3 (X10E06)/mm3
"CN(C)CCCC1(c2ccc(F)cc2)OCc2cc(C#N)ccc21 (stereo not shown) [S119, Celexa, reference compound]",8.6 (X10E06)/mm3,1.2,
"CN(C)CCCN1c2ccccc2Sc2ccc(Cl)cc21 [S121, CPZ, reference compound]",11.1 (X10E06)/mm3,2.3,
"CNCCC(Oc1ccc(C(F)(F)F)cc1)c1ccccc1 (stereo not shown) [S122, Prozac, reference compound]",10.0 (X10E06)/mm3,1.4,
"CN[C@H]1CC[C@@H](c2ccc(Cl)c(Cl)c2)c2ccccc21 [S123, Zoloft, reference compound]",9.4 (X10E06)/mm3,1.5,
"COc1ccc([C@H](CN(C)C)C2(O)CCCCC2)cc1 [S124, Effexor, reference compound]",8.9 (X10E06)/mm3,1.1,
